Results: ChEMBL document CHEMBL4420075, “Seriniquinones, melanoma-specific anticancer agents” (2016)

Assays:
Assay type in all cases: functional
SF-539 = assay: Growth inhibition of human SF539 cells assessed as cell growth incubated for 48 hrs by sulforhodamine B assay; parameters: scale not given: the % may be the effect or the level left
UO-31 = assay: Growth inhibition of human UO31 cells assessed as cell growth incubated for 48 hrs by sulforhodamine B assay; parameters: concentration or dose not given beside the values
PC-3 = assay: Growth inhibition of human PC3 cells assessed as cell growth incubated for 48 hrs by sulforhodamine B assay; parameters: concentration or dose not given beside the values
DU-145 = assay: Growth inhibition of human DU145 cells assessed as cell growth incubated for 48 hrs by sulforhodamine B assay; parameters: concentration or dose not given beside the values
MDA-MB-468 = assay: Growth inhibition of human MDA-MB-468 cells assessed as cell growth incubated for 48 hrs by sulforhodamine B assay; parameters: concentration or dose not given beside the values
IGROV-1 = assay: Growth inhibition of human IGROV1 cells assessed as cell growth incubated for 48 hrs by sulforhodamine B assay; parameters: scale not given: the % may be the effect or the level left
COLO 205 = assay: Growth inhibition of human COLO205 cells assessed as cell growth incubated for 48 hrs by sulforhodamine B assay; parameters: concentration or dose not given beside the values
HOP-62 = assay: Growth inhibition of human HOP62 cells assessed as cell growth incubated for 48 hrs by sulforhodamine B assay; parameters: concentration or dose not given beside the values
KM12 = assay: Growth inhibition of human KM12 cells assessed as cell growth incubated for 48 hrs by sulforhodamine B assay; parameters: concentration or dose not given beside the values
NCI-H322M = assay: Growth inhibition of human NCI-H322M cells assessed as cell growth incubated for 48 hrs by sulforhodamine B assay; parameters: scale not given: the % may be the effect or the level left
MOLT-4 = assay: Growth inhibition of human MOLT4 cells assessed as cell growth incubated for 48 hrs by sulforhodamine B assay; parameters: concentration or dose not given beside the values
HCT-15 = assay: Growth inhibition of human HCT15 cells assessed as cell growth incubated for 48 hrs by sulforhodamine B assay; parameters: scale not given: the % may be the effect or the level left
SNB-75 = assay: Growth inhibition of human SNB75 cells assessed as cell growth incubated for 48 hrs by sulforhodamine B assay; parameters: concentration or dose not given beside the values
ACHN = assay: Growth inhibition of human ACHN cells assessed as cell growth incubated for 48 hrs by sulforhodamine B assay; parameters: scale not given: the % may be the effect or the level left
SW-620 = assay: Growth inhibition of human SW620 cells assessed as cell growth incubated for 48 hrs by sulforhodamine B assay; parameters: concentration or dose not given beside the values
CAKI-1 = assay: Growth inhibition of human Caki1 cells assessed as cell growth incubated for 48 hrs by sulforhodamine B assay; parameters: concentration or dose not given beside the values
HOP-92 = assay: Growth inhibition of human HOP92 cells assessed as cell growth incubated for 48 hrs by sulforhodamine B assay; parameters: concentration or dose not given beside the values
UACC-62 = assay: Growth inhibition of human UACC62 cells assessed as cell growth incubated for 48 hrs by sulforhodamine B assay; parameters: concentration or dose not given beside the values
A498 = assay: Growth inhibition of human A498 cells assessed as cell growth incubated for 48 hrs by sulforhodamine B assay; parameters: concentration or dose not given beside the values
TK-10 = assay: Growth inhibition of human TK10 cells assessed as cell growth incubated for 48 hrs by sulforhodamine B assay; parameters: concentration or dose not given beside the values
HCT-116 = assay: Growth inhibition of human HCT116 cells assessed as cell growth incubated for 48 hrs by sulforhodamine B assay; parameters: concentration or dose not given beside the values
NCI-H460 = assay: Growth inhibition of human NCI-H460 cells assessed as cell growth incubated for 48 hrs by sulforhodamine B assay; parameters: concentration or dose not given beside the values
HT-29 = assay: Growth inhibition of human HT-29 cells assessed as cell growth incubated for 48 hrs by sulforhodamine B assay; parameters: concentration or dose not given beside the values
OVCAR-8 = assay: Growth inhibition of human OVCAR8 cells assessed as cell growth incubated for 48 hrs by sulforhodamine B assay; parameters: concentration or dose not given beside the values
SF-295 = assay: Growth inhibition of human SF295 cells assessed as cell growth incubated for 48 hrs by sulforhodamine B assay; parameters: concentration or dose not given beside the values
OVCAR-4 = assay: Growth inhibition of human OVCAR4 cells assessed as cell growth incubated for 48 hrs by sulforhodamine B assay; parameters: concentration or dose not given beside the values
SK-MEL-5 = assay: Growth inhibition of human SK-MEL-5 cells assessed as cell growth incubated for 48 hrs by sulforhodamine B assay; parameters: concentration or dose not given beside the values
BT-549 = assay: Growth inhibition of human BT549 cells assessed as cell growth incubated for 48 hrs by sulforhodamine B assay; parameters: concentration or dose not given beside the values
U-251 = assay: Growth inhibition of human U251 cells assessed as cell growth incubated for 48 hrs by sulforhodamine B assay; parameters: concentration or dose not given beside the values
MDA-MB-435 = assay: Growth inhibition of human MDA-MB-435 cells assessed as cell growth incubated for 48 hrs by sulforhodamine B assay; parameters: concentration or dose not given beside the values
OVCAR-3 = assay: Growth inhibition of human OVCAR3 cells assessed as cell growth incubated for 48 hrs by sulforhodamine B assay; parameters: concentration or dose not given beside the values
SN12C = assay: Growth inhibition of human SN12C cells assessed as cell growth incubated for 48 hrs by sulforhodamine B assay; parameters: concentration or dose not given beside the values
SK-MEL-2 = assay: Growth inhibition of human SK-MEL-2 cells assessed as cell growth incubated for 48 hrs by sulforhodamine B assay; parameters: concentration or dose not given beside the values
CCRF-CEM = assay: Growth inhibition of human CCRF-CEM cells assessed as cell growth incubated for 48 hrs by sulforhodamine B assay; parameters: concentration or dose not given beside the values
Malme-3M = assay: Growth inhibition of human MALME-3M cells assessed as cell growth incubated for 48 hrs by sulforhodamine B assay; parameters: scale not given: the % may be the effect or the level left
SNB-19 = assay: Growth inhibition of human SNB19 cells assessed as cell growth incubated for 48 hrs by sulforhodamine B assay; parameters: concentration or dose not given beside the values
HCC 2998 = assay: Growth inhibition of human HCC2998 cells assessed as cell growth incubated for 48 hrs by sulforhodamine B assay; parameters: concentration or dose not given beside the values
SK-MEL-28 = assay: Growth inhibition of human SK-MEL-28 cells assessed as cell growth incubated for 48 hrs by sulforhodamine B assay; parameters: concentration or dose not given beside the values
SK-OV-3 = assay: Growth inhibition of human SKOV3 cells assessed as cell growth incubated for 48 hrs by sulforhodamine B assay; parameters: concentration or dose not given beside the values
NCI-H522 = assay: Growth inhibition of human NCI-H522 cells assessed as cell growth incubated for 48 hrs by sulforhodamine B assay; parameters: concentration or dose not given beside the values
HL-60(TB) = assay: Growth inhibition of human HL-60(TB) cells assessed as cell growth incubated for 48 hrs by sulforhodamine B assay; parameters: concentration or dose not given beside the values
K562 = assay: Growth inhibition of human K562 cells assessed as cell growth incubated for 48 hrs by sulforhodamine B assay; parameters: concentration or dose not given beside the values
A549 = assay: Growth inhibition of human A549/ATCC cells assessed as cell growth incubated for 48 hrs by sulforhodamine B assay; parameters: concentration or dose not given beside the values
NCI-H226 = assay: Growth inhibition of human NCI-H226 cells assessed as cell growth incubated for 48 hrs by sulforhodamine B assay; parameters: concentration or dose not given beside the values
786-0 = assay: Growth inhibition of human 786-0 cells assessed as cell growth incubated for 48 hrs by sulforhodamine B assay; parameters: concentration or dose not given beside the values
RXF 393 = assay: Growth inhibition of human RXF393 cells assessed as cell growth incubated for 48 hrs by sulforhodamine B assay; parameters: concentration or dose not given beside the values
MDA-MB-231 = assay: Growth inhibition of human MDA-MB-231 cells assessed as cell growth incubated for 48 hrs by sulforhodamine B assay; parameters: concentration or dose not given beside the values
NCI-H23 = assay: Growth inhibition of human NCI-H23 cells assessed as cell growth incubated for 48 hrs by sulforhodamine B assay; parameters: concentration or dose not given beside the values
SR = assay: Growth inhibition of human SR cells assessed as cell growth incubated for 48 hrs by sulforhodamine B assay; parameters: concentration or dose not given beside the values
NCI/ADR-RES = assay: Growth inhibition of human NCI/ADR-RES cells assessed as cell growth incubated for 48 hrs by sulforhodamine B assay; parameters: concentration or dose not given beside the values
RPMI-8226 = assay: Growth inhibition of human RPMI8226 cells assessed as cell growth incubated for 48 hrs by sulforhodamine B assay; parameters: concentration or dose not given beside the values
MCF7 = assay: Growth inhibition of human MCF7 cells assessed as cell growth incubated for 48 hrs by sulforhodamine B assay; parameters: concentration or dose not given beside the values
OVCAR-5 = assay: Growth inhibition of human OVCAR5 cells assessed as cell growth incubated for 48 hrs by sulforhodamine B assay; parameters: scale not given: the % may be the effect or the level left
SF-268 = assay: Growth inhibition of human SF268 cells assessed as cell growth incubated for 48 hrs by sulforhodamine B assay; parameters: concentration or dose not given beside the values
UACC-257 = assay: Growth inhibition of human UACC257 cells assessed as cell growth incubated for 48 hrs by sulforhodamine B assay; parameters: concentration or dose not given beside the values
T47D = assay: Growth inhibition of human T47D cells assessed as cell growth incubated for 48 hrs by sulforhodamine B assay; parameters: concentration or dose not given beside the values
M14 = assay: Growth inhibition of human M14 cells assessed as cell growth incubated for 48 hrs by sulforhodamine B assay; parameters: concentration or dose not given beside the values
Hs-578T = assay: Growth inhibition of human Hs 578T cells assessed as cell growth incubated for 48 hrs by sulforhodamine B assay; parameters: concentration or dose not given beside the values
LOX IMVI = assay: Growth inhibition of human LOXIMVI cells assessed as cell growth incubated for 48 hrs by sulforhodamine B assay; parameters: concentration or dose not given beside the values

O=c1c2ccccc2c(=O)c2c1sc1c(=O)c3ccc(CCCO)cc3c(=O)c12 gave an Activity (SF-539) of -100%, an Activity (UO-31) of -96.45% and an Activity (PC-3) of -10.27%. The Activity (DU-145) was -98.88%, the Activity (MDA-MB-468) was -69.73% and the Activity (IGROV-1) was -77.75%. It also gave an Activity (COLO 205) of -100%, an Activity (HOP-62) of -100% and an Activity (KM12) of -60.46%. For the same compound, the Activity (NCI-H322M) was -96.79%, the Activity (MOLT-4) was -48.47% and the Activity (HCT-15) was -68.1%. For the same compound, the Activity (SNB-75) was -96.48%, the Activity (ACHN) was -100% and the Activity (SW-620) was -71.53%. The Activity (CAKI-1) was -39.14%, the Activity (HOP-92) was -25.51% and the Activity (UACC-62) was -88.56%. It also gave an Activity (A498) of -93%, an Activity (TK-10) of -94.99% and an Activity (HCT-116) of -56.49%. It also gave an Activity (NCI-H460) of -65.79%, an Activity (HT-29) of -50.87% and an Activity (OVCAR-8) of -30.24%. The Activity (SF-295) was -93.12%, the Activity (OVCAR-4) was -100% and the Activity (SK-MEL-5) was -100%. For the same compound, the Activity (BT-549) was -95.56%, the Activity (U-251) was -92.1% and the Activity (MDA-MB-435) was -94.78%. It also gave an Activity (OVCAR-3) of -43.56%, an Activity (SN12C) of -85.36% and an Activity (SK-MEL-2) of -72.58%. For the same compound, the Activity (CCRF-CEM) was -42.44%, the Activity (Malme-3M) was -94.59% and the Activity (SNB-19) was -83.74%. For the same compound, the Activity (HCC 2998) was -89.21%, the Activity (SK-MEL-28) was -91.59% and the Activity (SK-OV-3) was -74.3%. It also gave an Activity (NCI-H522) of -73.7%, an Activity (HL-60(TB)) of -39.5% and an Activity (K562) of -26.48%. The Activity (A549) was -66.71%, the Activity (NCI-H226) was -53.49% and the Activity (786-0) was -90.2%. It also gave an Activity (RXF 393) of -77.25%, an Activity (MDA-MB-231) of -36.34% and an Activity (NCI-H23) of -39.8%. The Activity (SR) was -22.18%, the Activity (NCI/ADR-RES) was -22.56% and the Activity (RPMI-8226) was -37.51%. For the same compound, the Activity (MCF7) was -57.56%, the Activity (OVCAR-5) was -95.91% and the Activity (SF-268) was -52.35%. The Activity (UACC-257) was -98.14%, the Activity (T47D) was -45.39% and the Activity (M14) was -94.97%. It also gave an Activity (Hs-578T) of -11.73% and an Activity (LOX IMVI) of -80.49%.
